Measured values taken from US20130089510A1, “OTIC COMPOSITIONS FOR THE TREATMENT OF INFECTIONS OF THE INTERNAL AND EXTERNAL EAR IN MAMMALS” (Foresight Biotherapeutics, Inc., priority 2008, published 2013).

Legend:
[1] = Reactivity/compatibility of PVP-I with other active ingredients
external ear = details: in vivo; cited from earlier work

Row | Compound | consumption of the agent on reaction with PVP-I ([1]; mixed with PVP-I) | concentration known to be safe for use in the external ear (and inner ear through a ruptured tympanic membrane) (external ear) | available iodine in the PVP-I complex ([1]; with Ketorolac, depending on the ratio between Ketorolac and PVP-I)
1 | O=C(c1ccccc1)c1ccc2n1CCC2C(=O)O (stereo not drawn) [Ketorolac] | completely consumed |  | 
2 | 1-Vinyl-2-pyrrolidinone polymers, iodine complex [PVP-I] |  | up to 10.0 % (w/w, aqueous) | reduced significantly
